Where two headings read alike, the source gives them in different places.

Series [1] is described as follows: Therapeutic drug monitoring of dalbavancin plasma concentrations (Cmin, Cmax) in a severely underweight patient. Type of series: in vivo, human. As to the method:
Following multidisciplinary consultation, a dosing regimen of dalbavancin 1000 mg administered on day 1 and day 8 was initiated. Subsequent dosing intervals were guided based on TDM results, assessing both minimum (Cmin, within 1 h before the injection) and maximum (Cmax, 30–60 min after the end of infusion) dalbavancin plasma concentrations, as previously described.[3],[4] Cmin and Cmax values were incorporated into log-linear regression models by plotting the logarithm of dalbavancin plasma concentrations against time, to estimate individualized timing of subsequent doses, with the aim of maintaining Cmin levels above 8 mg/L (based on a breakpoint MIC of […]).[3–7],[9]
The quantification of dalbavancin plasma concentrations was performed using a previously validated liquid chromatography–tandem mass spectrometry method.[10] The volume of distribution was estimated as the ratio between the dalbavancin dose and the mean Cmax concentration. Written informed consent for all medical procedures and interventions performed in accordance with clinical practice was obtained from the patient.

The subject of another series is Corynebacterium striatum. Description: Clinical course of prosthetic aortic valve infective endocarditis under dalbavancin therapy. The note with it: single patient. Type of series: in vivo, human. The source says:
(§1) We report the case of a patient who required initiation of dalbavancin therapy in November 2024 for infective endocarditis of a biological aortic valve (replaced April 2024) caused by Corynebacterium striatum. […] Due to a high surgical risk, the patient was deemed ineligible for repeat cardiac surgery.
The eighth dalbavancin dose was scheduled 50 days after the previous administration.

The conditions of series [2]: cited from earlier work. The source says:
As a result, severely underweight patients may theoretically be at risk of drug overexposure when treated with the conventional 1 ...

Series [3] can be described thus: Tolerability of earlier antibiotic therapy in the patient. Type of series: in vivo, human. Particulars: single patient, treatment before the start of dalbavancin.
From the text: as §1

On to `CN[C@H]1C(=O)N[C@@H]2Cc3ccc(cc3)Oc3cc4cc(c3O[C@@H]3O[C@H](C(=O)O)[C@@H](O)[C@H](O)[C@H]3NC(=O)CCCCCCCCC(C)C)Oc3ccc(cc3Cl)[C@@H](O)[C@@H]3NC(=O)[C@H](NC(=O)[C@@H]4NC(=O)[C@@H](NC2=O)c2cc(cc(O)c2Cl)Oc2cc1ccc2O)c1ccc(O)c(c1)-c1c(O[C@H]2O[C@H](CO)[C@@H](O)[C@H](O)[C@@H]2O)cc(O)cc1[C@@H](C(=O)NCCCN(C)C)NC3=O` [dalbavancin, Dalbavancin], for which the “Cmin (minimum dalbavancin plasma concentration)” value in series [1] (patient, 28-38 kg, 1000 mg on day 1 and day 8, then TDM-guided intervals, seven administrations over 217 days, sampled within 1 h before the injection, plasma, LC-MS/MS, at each TDM assessment) is reported as “exceeded 8 mg/L”. In addition, in series [1] (severely underweight patient (28-38 kg), dose/Cmax, range over the observation period), the “volume of distribution, range” value lay in the range of 2.2 to 3.1 L. For the same molecule, the “mean volume of distribution” value in series [1] (severely underweight patient (28-38 kg), ratio between dalbavancin dose and mean Cmax (30-60 min after end of infusion), plasma LC-MS/MS, mean ± spread over administrations) amounted to 2.7 ± 0.4 L. The “volume of distribution (approximate, as discussed)” value in series [1] (severely underweight patient, markedly reduced compared with reported values) fell in the range of 2 to 3 L. The PET scan finding entry in the series with Corynebacterium striatum (PET scan 6 months after initiation of dalbavancin therapy) is recorded as “stability of the infectious process”. Moreover, the “clinical status at last follow-up visit” value with Corynebacterium striatum (last follow-up visit after seven dalbavancin administrations, negative inflammatory markers) was “no fever or signs of systemic infection”. Also, the values for the volume of distribution in series [2] (normal-weight individuals), in series [2] (obese individuals) and in series [2] (overweight individuals) were 3 to 4 L, 6 to 7 L and 4 to 5 L, respectively.

Take vancomycin: the “tolerability in the patient” value in series [3] was “discontinued due to a cutaneous adverse reaction”.

The values above are taken from paper PMC12802956, “Dalbavancin dosing in a severely underweight person with prosthetic valve endocarditis: the critical role of proactive therapeutic drug monitoring” (Journal of Antimicrobial Chemotherapy, 2025).
